The text below walks through data of patent publication EP0255420B1, “Antiviral agent for inhibiting growth of virus of acquired immune deficiency syndrome (AIDS)” (priority 1986, dated 1988).

Structures are written as SMILES. In brackets after ≈: the same amount, converted by molar mass. Read-outs that look alike come from different tables or passages of the source.

A short description of one data set: Acute toxicity, rat. Format: in vivo. The following applies: Oral administration (rat).
The test system of data set [1] is HIV. In words: Cell fusion of HIV infected clone No.8 cells of Molt-4. The format is cell-based. The conditions noted are these: 1 mg/ml, day 6 and 9.
Data set [2] concerns HIV. Kind of data set: Cytopathic effect in HIV infected clone No.8 cells of Molt-4 (viable cells, viability). Format: cell-based. The conditions noted are these: 1 mg/ml.
Data set [3] deals with HIV. Kind of data set: Reverse transcriptase activity in culture fluids of HIV infected clone No.8 cells of Molt-4. The conditions noted are these: 1 mg/ml. Format: cell-based.
A further data set concerns the target reverse transcriptase (Human immunodeficiency virus type 1 group M subtype B, UniProt P04585). In words: Reverse transcriptase assay with disrupted HIV. The format is biochemical. Also on record: made in house; host or cells: virions from culture supernatants of HIV-producing Molt-4 cells (Molt-4/HIV), disrupted with Triton X-100. The method, then:
Supernatants of Molt-4/HIV were concentrated 100 times by sucrose gradient ultracentrifugation. The viral pellets were disrupted by addition of suspension buffer containing 5 mM Tris-HCI(pH 8.1), 0.5 M KCI, 0.1 mM dithiothreitol and 0.1 % Triton® X-100. The assay for reverse transcriptase activity was performed at 37°C for 1 h with a 10 0 of the disrupted HIV in a final volume of 50 µl containing 50 mM Tris-HCI(pH 8.4), 2 mM dithiothreitol, 100 mM KCI, 10 mM MgCI, 0.01 % Triton X-100. 1 wCi 3H-thymidine triphosphate (57 Ci/m mol.; Amersham, Buckinghanshire, UK) and 50 gg/ml poly(rA)/oligo(dT)(P-L Biochemicals Inc., Milwaukee, Wis). The reaction was stopped with 5% trichloroacetic acid, and precipitates were collected on glass fibre filters and counted in a liquid scintillation counter (Harada et. al; Virology 146, p.272-281,1985b). The assays were carried out in triplicate.

For data set [4] the following is noted: mouse, in vivo, ip.
Data set [5] concerns HIV. In words: HIV-specific antigen expression in HIV infected clone No.8 cells of Molt-4 (immunofluorescence). Format: cell-based. The conditions noted are these: 1 mg/ml.
The subject of data set [6] is MT-4 cells. Kind of data set: 3H-thymidine uptake in MT-4 cells (DNA synthesis). Format: cell-based. The conditions noted are these: 3 days. The method, then:
(§1) MT-4 cells were adjusted to 3x10^5 cells/ml in fresh medium and cultured with various concentrations of glycyrrhizin in a 96-flat bottom well microtiter plate for 3 days. 10^6 pheripleral blood monouclear cells were cultured with 1 wg/ml of poly clonal mitogen PHA or concanavalin A various concentrations of glycyrrhizin for 3 days. Cells were incubated with either 1 µCi/well of ^3H-thymidine (20 Ci/m mol.; New Engl.Nuclear, Boston, MA), for the last 18 hours. The cells were harvested on a glassfiber filter paper and counted in a liquid scintillation counter. All experiments were carried out in triplicate.

The test system of data set [7] is HIV. In words: Assay for HIV specific antigen expression in HIV infected MT-4 cells (indirect immunofluorescence). The format is cell-based. The conditions noted are these: for percentage of IF-positive cells: day 3 after infection.
Another data set has as its system HIV particles. In words: Inactivation of HIV particles by glycyrrhizin (pre-incubation, then plaque assay). The following applies: even at 2 mg/ml, 60 min at 37°C. Format: cell-based. The method, then: 0.5 ml of HIV containing plaque forming units was mixed with 0.5 ml of various concentrations of glycyrrhizin in the test tubes and incubated at 37°C.
After 60 min. incubation 0.1 ml of each mixture was diluted with 19.9 ml of culture medium, and 0.1 ml of the […] diluted virus preparation was added. After adsorption, 1 ml of the agarose overlay medium consisting of RPMI-1640 medium with 10 % fetal calf serum, antibiotics and 0.6 % agarose was poured in. The maximum concentration of the diluted glycyrrhizin in plaque assay medium was 0.01 mg/ml, and this concentration itself reduced about 10 % of HIV induced plaque forming activity in MT-4 cells.

Data set [8] has as its system HIV. Format: cell-based. The method, then: HIV was obtained from the culture supernatant of Molt-4/HIV. Titer of virus preparation was 6x10^4 plaque forming units/ml. Infection of MT-4 cells and clone No. 8 cells of Molt-4 with HIV was made at a multiplicity of infectin of 0.002.
To evaluate the direct effect of glycyrrhizin on the infection of HIV in MT-4 cells, plaque assay using agarose overlay medium with various concentrations of glycyrrhizin was performed. Briefly, in order to fasten MT-4 cells onto culture vessels, 35 mm polystyrene tissue culture dishes were coated with poly-L-lysine (Sigma Chemical Co., St. Louis,Mo) One and half milliliters of 1.50 x 10^6/ml MT-4 cells were dropped onto each poly-L-lysine-coated dish and incubator for 1 hour at room temperature. The dishes were gently washed with phosphate buffered saline to remove unbound cells, 100 p.1 of appropriate diluted virus preparation was slowly added and incubated for 1 hour at room temperature for virus adsorption. After adsorption, 1 ml of the agarose overlay medium consisting of RPMI 1640 medium with 10 % fetal calf serum, antibiotics and 0.6 % agarose (Sea plaque Agarose, Marine Colloid Corp., Rockland, Me) was poured into each dish. The dishes were incubated in a C02 incubator at 37°C for 3 days and 1 ml of agarose overlay medium containing neutral red was added. The dishes were incubated 3 more days and visible plaque were counted. All experiments were carried out in triplicate.

Data set [9] concerns normal pheripleral blood monouclear cells. Kind of data set: 3H-thymidine uptake in normal peripheral blood mononuclear cells (lectin-induced blast formation). Format: cell-based. The conditions noted are these: normal lymphocytes, 3 days. The method, then: as §1
The subject of a further data set is Varicella-Zoster virus. The following applies: human embryonic fibroblast; cited from earlier work.
In data set [10] the test system is HIV. Kind of data set: Assay for HIV induced cytopathic effects in HIV infected MT-4 cells (viable cells, trypan blue exclusion). The conditions noted are these: day 3, multiplicity of infection 0.002. Format: cell-based. On the technique in general: Cytopathic effects are the visible damage that an infection or toxin causes in cultured cells.
The subject of data set [11] is MT-4 cells. In words: Growth of MT-4 cells not exposed to virus (viable cell count). The format is cell-based. The following applies: 2 mg/ml. From the text:
• Fig. 1 is a view showing direct effect of glycyrrhizin on HIV induced plaque forming activity in MT-4 cells. Results are the mean of two experiments each performed in triplicate. • Fig. 2 is a view showing inhibition of cytopathic effect of HIV on MT-4 cells by glycyrrhizin. […] Data are from a single experiment, representative of four separate experiments. […] The viable cells were detected by trypan blue exclusion staining method.

In data set [12] the test system is HIV. Kind of data set: Number of HIV in culture fluids of infected clone No.8 cells of Molt-4 (MT-4 cell plaque assay system). The format is cell-based. The conditions noted are these: 1 mg/ml.
Data set [13] deals with herpes simplex virus. The conditions noted are these: human embryonic fibroblast; cited from earlier work.
For the next data set, the system named is VSV. The following applies: cited from earlier work.
Data set [14] concerns herpes simplex virus. The following applies: cited from earlier work.

In the case of `CC1(C)[C@@H](O[C@H]2O[C@H](C(=O)O)[C@@H](O)[C@H](O)[C@H]2O[C@@H]2O[C@H](C(=O)O)[C@@H](O)[C@H](O)[C@H]2O)CC[C@]2(C)[C@H]3C(=O)C=C4[C@@H]5C[C@@](C)(C(=O)O)CC[C@]5(C)CC[C@@]4(C)[C@]3(C)CC[C@@H]12` [glycyrrhizin], the LD5o in the data set “Acute toxicity, rat” is 3000 mg/kg; in [4] it was 225 to 244 mL/kg; in “Acute toxicity, mouse” (Intravenous injection 2 % aqueous solution (mouse)) it was 682.5 mg/kg; in “Acute toxicity, mouse” (Subcutaneous injection 5 % aqueous solution (mouse)), 1873.3 mg/kg. In the data set with HIV [1], the “fusion on clone No.8 cells of Molt-4” value is reported as “did not occur”. Further, the viability (as a rule, a read-out of living cells in per cent, often relative to untreated cells) in the data set on HIV [2] (on day 3) stood at 91.4%; in the data set with HIV [2] (on day 6), 83.4%; in the data set on HIV [2] (on day 9), 84.4%. Moreover, the values for the viable cells in the data set on HIV [2] (on day 3), in the data set with HIV [2] (on day 6) and with HIV [2] (on day 9) were 1.5e+06 mL⁻¹, 3.4e+06 mL⁻¹ and 7.57e+06 mL⁻¹, respectively. Also, the RT in the data set on HIV [3] (on day 3, CPM per 10^4 viable cells) is 1536 cpm; in the data set on HIV [3] (on day 6, CPM per 10^4 viable cells), 5369 cpm; with HIV [3] (on day 9, CPM per 10^4 viable cells) it was 4369 cpm. In addition, the “inhibition of reverse transcriptase activity of HIV (in words)” value against reverse transcriptase (even at 10 mg/ml) was “did not inhibit”. Further, the IF posivive cells with HIV [5] (on day 6) is 7.1%. Moreover, the IF positive cells in the data set on HIV [5] (on day 9) turned out to be 5.8%. For the same compound, in the data set on MT-4 cells [6], the “ID50 for DNA synthesis of uninfected MT-4 cells” value worked out at 2150 µg/mL. In addition, the “percentage of IF-positive cells” value amounted to 70.9 with HIV [7] (0.005 mg/ml); 69.3 in the data set on HIV [7] (0.05 mg/ml); 23.3 in the data set with HIV [7] (0.25 mg/ml); 1.0 in the data set with HIV [7] (0.5 mg/ml); 0.6 with HIV [7] (1 mg/ml). Also, the “expression of HIV-specific antigen (in words)” value in the data set on HIV [7] (0.25 mg/ml) is on record as “significant inhibition”; in the data set on HIV [7] (0.5 mg/ml), “almost completely suppressed”; in the data set on HIV [7] (1 mg/ml), “almost completely suppressed”. The “inactivation of HIV particles” value with HIV particles is recorded as “did not inactivate”. In addition, in the data set with HIV [8] (0.01 mg/ml in plaque assay medium), the “reduction of HIV induced plaque forming activity in MT-4 cells” value is “about 10%”. The “suppression of plaque formation” value in the data set with HIV [8] (0.05 mg/ml in agarose overlay medium, MT-4 cells) is listed as 34.2%. In addition, the “inhibition of plaque formation” value in the data set with HIV [8] (0.5 mg/ml, MT-4 cells) is “completely inhibited”; in the data set on HIV [8] (1 mg/ml, MT-4 cells), “completely inhibited”. Besides, the “selectivity index (the ratio on the ID50 for host cell DNA synthesis to the average ID50 for HIV)” value with HIV [8] (MT-4 cells) worked out at 17.2. The “ID50 (plaque formation of HIV)” value in the data set on HIV [8] (MT-4 cells, Fig.1) is 125 µg/mL. Moreover, the “ID50 on PHA response” value in data set [9] (PHA) was found to be 2100 µg/mL (≈ 2550 µM). The “ID50 on concanavalin A response” value in data set [9] (concanavalin A) amounted to 2000 µg/mL (≈ 2430 µM). Besides, the “ID50 against Varicella-Zoster virus” value with Varicella-Zoster virus is 580 µg/mL (≈ 705 µM). Besides, the “growth inhibition of infected cultures as compared with the uninfected MT-4 cells” value in the data set with HIV [10] (0.25 mg/ml), in the data set on HIV [10] (0.5 mg/ml) and in the data set on HIV [10] (1 mg/ml) was “not significant” in each case. Also, in the data set with MT-4 cells [11], the growth inhibition stood at 50%. In addition, the “number of HIV” value in the data set on HIV [12] (on day 3) is listed as 500< pfu/ml; in the data set on HIV [12] (on day 6), 500< pfu/ml; in the data set on HIV [12] (on day 9), 1000 pfu/ml. Besides, the “ID50 against herpes simplex virus” value in the data set on herpes simplex virus [13] is 600 µg/mL (≈ 729 µM).

As to `CC1(C)[C@@H](O)CC[C@]2(C)[C@H]3C(=O)C=C4[C@@H]5C[C@@](C)(C(=O)O)CC[C@]5(C)CC[C@@]4(C)[C@]3(C)CC[C@@H]12` [glycyrrhetinic acid], the “inactivation of virus particles” value in the data set on VSV (VSV incubated with compound for 30 min) and with herpes simplex virus [14] (herpes simplex virus incubated with compound for 30 min) was “inactivates the virus particles” each time. Besides, the “replication of VSV” value in the data set on VSV is recorded as “suppress the replication”. Also, in the data set on herpes simplex virus [14], the “replication of herpes simplex virus” value is given as “suppress the replication”.

`Cc1cn([C@H]2C[C@H](N=[N+]=[N-])[C@@H](COP(=O)(O)OP(=O)(O)OP(=O)(O)O)O2)c(=O)[nH]c1=O` [3' -azido-TIP, 3'-azido-3'-deoxythymidine triphosphate]: on reverse transcriptase (0.005 mg/ml), the “inhibition of reverse transcriptase activity” value came to 97%.
